One test addresses CDK2/CycA2 kinase (Homo sapiens, UniProt P24941). Put plainly: Determination of inhibitory activity against CDK2/CycA2 kinase. The class given is biochemical. The method, then: 1.1 Determination of inhibitory activity against CDK2/CycA2 kinase
(§1) CDK2/CycA2 kinase solution (concentration: 0.078 ng/µL) was added to assay wells at 6 µL/well, and different compounds dissolved in DMSO were added to the assay wells separately using a nanoliter pipettor, such that the final concentrations of the compounds were 1000 nM to 0.244 nM. The wells were set in duplicate, and a control well was set. After a 30-min incubation of the above system, ATP (concentration: 50 µM or 5000 µM) was mixed with ULight-Myelin Basic Protein Peptide substrate (manufacturer: PerkinElmer, concentration: 0.25 µM) in a ratio of 1:1, and the mixture was added to the assay wells at 4 µL/well. The resultant mixture was left to react at room temperature for 2 h, and then 5 µL of EDTA was added to terminate the reaction, followed by the addition of 5 µL of a detection antibody (manufacturer: PerkinElmer, concentration: 8 nM). The mixture was incubated at room temperature for 1 h. The assay was performed using a PerkinElmer Envision multifunctional microplate reader (excitation: 320 nm, emission: 615 nm/665 nm), and IC50 was calculated by four-parameter fitting.

The target in another test is CDK2 CycE1 kinase (Homo sapiens, UniProt P24941). Put plainly: Determination of inhibitory activity against CDK2 CycE1 kinase. The class given is biochemical. Here is the method: 1.2 Determination of inhibitory activity against CDK2 CycE1 kinase
as §1, with “CDK2 CycEl” for “CDK2/CycA2”, “0.015” for “0.078”, “300” for “1000”, “0.07” for “0.244”, “fitting. […] Table 1: Inhibitory activity of compound against CDK2 CycA2 and CDK2 CycEl kinases” for “fitting.”

Setting [1] is: CDK2/CycA2 10 µM ATP (kinase) IC50 (nM).
Setting [2] is: read-out: CDK2/CycA2 10 µM ATP (kinase) IC50.
Setting [3] is: read-out: CDK2/CycE1 10 µM ATP (kinase) IC50.

Structures are written as SMILES. Read-outs that look alike come from different tables or passages of the source.

Turning to `CC(C)(CCO)NC(=O)OC1CCC(c2cc(Nc3ccc4c(c3)CS(=O)(=O)C4)[nH]n2)C1` (centres unmarked) [Compound 6], the IC50 against CDK2/CycA2 kinase (setting [1]) was 10 to 50 nM; at CDK2 CycE1 kinase (10 µM ATP (kinase)) it was less than 0.01 µM.

Regarding `O=C(NCC(F)(F)F)OC1CCC(c2cc(Nc3ccc4c(c3)CS(=O)(=O)C4)[nH]n2)C1` (centres unmarked) [Compound 12], the IC50 at CDK2/CycA2 kinase (setting [1]) is 10 to 50 nM; at CDK2 CycE1 kinase (10 µM ATP (kinase)) it was less than 0.01 µM.

Regarding `CC1(C)CCN1C(=O)OC1CCC(c2cc(Nc3ccc4c(c3)CS(=O)(=O)C4)[nH]n2)C1` (centres unmarked) [Compound 17], the IC50 was less than 10 nM against CDK2/CycA2 kinase (setting [1]) and less than 0.01 µM against CDK2 CycE1 kinase (10 µM ATP (kinase)).

Regarding `C[C@H](NC(=O)O[C@@H]1CC[C@H](c2cc(Nc3ccc4c(c3)CS(=O)(=O)C4)[nH]n2)C1)C1CC1` [Compound 5], the figures for the IC50 on CDK2/CycA2 kinase (setting [2]) and on CDK2 CycE1 kinase (setting [3]) were less than 10 nM and less than 0.01 µM, respectively.

On to `CCNC(=O)OC1CCC(c2cc(Nc3ccc4c(c3)CS(=O)(=O)C4)[nH]n2)C1` (centres unmarked) [Compound 10], for which the IC50 against CDK2/CycA2 kinase (setting [1]) is less than 10 nM; against CDK2 CycE1 kinase (10 µM ATP (kinase)), less than 0.01 µM.

With `CC(C)NC(=O)OC1CCC(c2cc(Nc3ccc4c(c3)C[S+]([O-])C4)n[nH]2)C1` (centres unmarked) [Compound 2], the values for the IC50 at CDK2/CycA2 kinase (setting [2]) and at CDK2 CycE1 kinase (setting [3]) were 10 to 50 nM and less than 0.01 µM, respectively.

On to `O=C(NCC(F)F)OC1CCC(c2cc(Nc3ccc4c(c3)CS(=O)(=O)C4)[nH]n2)C1` (centres unmarked) [Compound 13], for which the IC50 at CDK2/CycA2 kinase (setting [1]) was less than 10 nM; on CDK2 CycE1 kinase (10 µM ATP (kinase)) it was less than 0.01 µM.

For `CC(C)(C)NC(=O)OC1CCC(c2cc(Nc3ccc4c(c3)C[S+]([O-])C4)n[nH]2)C1` (centres unmarked) [Compound 35], the IC50 on CDK2 CycE1 kinase (setting [3]) was less than 0.01 µM.

As to `CC(C)(C)NC(=O)OC1CCC(c2cc(Nc3ccc4c(c3)CS(=O)(=O)C4)[nH]n2)C1` (centres unmarked) [Compound 4], the IC50 on CDK2/CycA2 kinase (setting [1]) is less than 10 nM; at CDK2 CycE1 kinase (10 µM ATP (kinase)), less than 0.01 µM.

Turning to `CC1(NC(=O)OC2CCC(c3cc(Nc4ccc5c(c4)C[S+]([O-])C5)[nH]n3)C2)CC1` (centres unmarked) [Compound 31], the IC50 at CDK2/CycA2 kinase (setting [1]) is less than 10 nM; at CDK2 CycE1 kinase (setting [3]) it was less than 0.01 µM.

Regarding `COCc1cc(Nc2cc([C@H]3CC[C@@H](OC(=O)NC(C)C)C3)n[nH]2)cc2c1C(C)S(=O)(=O)C2` (some centres unmarked) [Compound 8], the IC50 at CDK2 CycE1 kinase (setting [3]) was in the range of 0.01 to 0.05 µM.

For the compound `CC(C)NC(=O)OC1CCC(c2cc(Nc3ccc4c(c3)CCS4(=O)=O)n[nH]2)C1` (centres unmarked) [Compound 15], the IC50 on CDK2 CycE1 kinase (10 µM ATP (kinase)) was less than 0.01 µM.

With `CC(NC(=O)OC1CCC(c2cc(Nc3ccc4c(c3)CS(=O)(=O)C4)[nH]n2)C1)C1CC1` (centres unmarked) [Compound 3], the IC50 on CDK2/CycA2 kinase (setting [2]) is less than 10 nM; on CDK2 CycE1 kinase (setting [3]), less than 0.01 µM.

With `CC1(C)CCN1C(=O)OC1CCC(c2cc(Nc3ccc4c(c3)C[S+]([O-])C4)[nH]n2)C1` (centres unmarked) [Compound 29], the IC50 against CDK2/CycA2 kinase (setting [1]) was less than 10 nM; at CDK2 CycE1 kinase (setting [3]), less than 0.01 µM.

In the case of `O=C(NC12CC(C1)C2)OC1CCC(c2cc(Nc3ccc4c(c3)CS(=O)(=O)C4)[nH]n2)C1` (centres unmarked) [Compound 7], the IC50 at CDK2/CycA2 kinase (setting [1]) is less than 10 nM; at CDK2 CycE1 kinase (10 µM ATP (kinase)), less than 0.01 µM.

Take `O=C(NC12CC(C1)C2)OC1CCC(c2cc(Nc3ccc4c(c3)C[S+]([O-])C4)n[nH]2)C1` (centres unmarked) [Compound 34]: the IC50 on CDK2 CycE1 kinase (setting [3]) is less than 0.01 µM.

Regarding `CCNC(=O)OC1CCC(c2cc(Nc3ccc4c(c3)C[S+]([O-])C4)[nH]n2)C1` (centres unmarked) [Compound 37], the IC50 on CDK2 CycE1 kinase (setting [3]) fell in the range of 0.01 to 0.05 µM.

Turning to `CC1(NC(=O)OC2CCC(c3cc(Nc4ccc5c(c4)C[S+]([O-])C5)[nH]n3)C2)CC1` (centres unmarked) [Compound 25], the IC50 was 10 to 50 nM against CDK2/CycA2 kinase (setting [1]) and less than 0.01 µM against CDK2 CycE1 kinase (10 µM ATP (kinase)).

As to `CC(C)NC(=O)OC1CCC(c2cc(Nc3ccc4c(c3)C[S+]([O-])C4)n[nH]2)C1` (centres unmarked) [Compound 22], the IC50 against CDK2/CycA2 kinase (setting [1]) was 10 to 50 nM; against CDK2 CycE1 kinase (10 µM ATP (kinase)) it was less than 0.01 µM.

For the compound `CC1(NC(=O)OC2CCC(c3cc(Nc4ccc5c(c4)C[S+]([O-])C5)[nH]n3)C2)CC1` (centres unmarked) [Compound 32], the IC50 on CDK2 CycE1 kinase (setting [3]) is less than 0.01 µM.

Regarding `CC1CN(C)CCN1C(=O)OC1CCC(c2cc(Nc3ccc4c(c3)CS(=O)(=O)C4)[nH]n2)C1` (centres unmarked) [Compound 21], the IC50 against CDK2/CycA2 kinase (setting [1]) is less than 10 nM; against CDK2 CycE1 kinase (10 µM ATP (kinase)) it was less than 0.01 µM.

Take `CC1(C)CCN1C(=O)OC1CCC(c2cc(Nc3ccc4c(c3)C[S+]([O-])C4)[nH]n2)C1` (centres unmarked) [Compound 30]: the IC50 on CDK2/CycA2 kinase (setting [1]) is 10 to 50 nM; at CDK2 CycE1 kinase (setting [3]), less than 0.01 µM.

Regarding `CCNC(=O)OC1CCC(c2cc(Nc3ccc4c(c3)C[S+]([O-])C4)[nH]n2)C1` (centres unmarked) [Compound 19], at CDK2 CycE1 kinase (10 µM ATP (kinase)), the IC50 was in the range of 0.01 to 0.05 µM.

For `CC1CN(C)CCN1C(=O)OC1CCC(c2cc(Nc3ccc4c(c3)C[S+]([O-])C4)[nH]n2)C1` (centres unmarked) [Compound 20], at CDK2 CycE1 kinase (10 µM ATP (kinase)), the IC50 was in the range of 0.01 to 0.05 µM.

For `CC(C)(C)NC(=O)OC1CCC(c2cc(Nc3ccc4c(c3)C[S+]([O-])C4)n[nH]2)C1` (centres unmarked) [Compound 14], the IC50 was less than 10 nM against CDK2/CycA2 kinase (setting [1]) and less than 0.01 µM at CDK2 CycE1 kinase (10 µM ATP (kinase)).

`CC1(C)CCN1C(=O)OC1CCC(c2cc(Nc3ccc4c(c3)CS(=O)(=O)C4)[nH]n2)C1` (centres unmarked) [Compound 18]: the IC50 on CDK2/CycA2 kinase (setting [2]) was less than 10 nM.

For the compound `CC(C)NC(=O)OC1CCC(c2cc(Nc3ccc4c(c3)C[S+]([O-])C4)n[nH]2)C1` (centres unmarked) [Compound 23], the IC50 at CDK2 CycE1 kinase (setting [3]) is less than 0.01 µM.

On to `O=C(NC12CC(C1)C2)OC1CCC(c2cc(Nc3ccc4c(c3)C[S+]([O-])C4)n[nH]2)C1` (centres unmarked) [Compound 33], for which, at CDK2 CycE1 kinase (setting [3]), the IC50 is less than 0.01 µM.

For `O=C(NC1CCC1)OC1CCC(c2cc(Nc3ccc4c(c3)CS(=O)(=O)C4)[nH]n2)C1` (centres unmarked) [Compound 1], the IC50 on CDK2/CycA2 kinase (setting [1]) is less than 10 nM; on CDK2 CycE1 kinase (10 µM ATP (kinase)), less than 0.01 µM.

For the compound `CC(C)NC(=O)OC1CCC(c2cc(Nc3cc(F)c4c(c3)CS(=O)(=O)C4)[nH]n2)C1` (centres unmarked) [Compound 11], the IC50 against CDK2/CycA2 kinase (setting [1]) was less than 10 nM; against CDK2 CycE1 kinase (10 µM ATP (kinase)), less than 0.01 µM.

In the case of `CC1(C)CCN1C(=O)OC1CCC(c2cc(Nc3ccc4c(c3)C[S+]([O-])C4)[nH]n2)C1` (centres unmarked) [Compound 26], the IC50 at CDK2/CycA2 kinase (setting [1]) is less than 10 nM; against CDK2 CycE1 kinase (10 µM ATP (kinase)) it was less than 0.01 µM.

With `O=C(NC1CC1)OC1CCC(c2cc(Nc3ccc4c(c3)C[S+]([O-])C4)[nH]n2)C1` (centres unmarked) [Compound 24], the IC50 at CDK2 CycE1 kinase (10 µM ATP (kinase)) fell in the range of 0.01 to 0.05 µM.

Turning to `O=C(NC12CC(C1)C2)OC1CCC(c2cc(Nc3ccc4c(c3)C[S+]([O-])C4)n[nH]2)C1` (centres unmarked) [Compound 16], the values for the IC50 against CDK2/CycA2 kinase (setting [1]) and against CDK2 CycE1 kinase (10 µM ATP (kinase)) were less than 10 nM and less than 0.01 µM, respectively.

Regarding `O=C(NC1CC1F)OC1CCC(c2cc(Nc3ccc4c(c3)C[S+]([O-])C4)[nH]n2)C1` (centres unmarked) [Compound 41], on CDK2 CycE1 kinase (10 µM ATP (kinase)), the IC50 is less than 0.01 µM.

Consider `CC(C)(C)NC(=O)OC1CCC(c2cc(Nc3ccc4c(c3)C[S+]([O-])C4)n[nH]2)C1` (centres unmarked) [Compound 36], for which, at CDK2 CycE1 kinase (setting [3]), the IC50 is less than 0.01 µM.

The values are drawn from patent publication EP4700024A1, “CYCLOPENTYLPYRAZOLAMINE DERIVATIVE AND USE THEREOF” (Chia Tai Tianqing Pharmaceutical Group Co., Ltd., priority 2023, dated 2024).
